Test results: publication PMC5864910, “Mutacin 1140 Lantibiotic Variants Are Efficacious Against Clostridium difficile Infection” (Frontiers in Microbiology, 2018)
In brackets after ≈: the same amount, converted by molar mass. Like-named read-outs stand apart in the source and are kept apart here. Each block holds one compound with its values, some of them ahead of it. No end group written: not given here.

How the values were obtained:
Clostridium difficile = settings: n = 3 strains; unit from method b19
Staphylococcus aureus = settings: n = 5 strains; unit from method b19
C. difficile UNT103-1 = experiment: Cannulated Syrian hamster efficacy/relapse model of C. difficile infection (cHCDAD); format: in vivo, Golden Syrian hamsters; settings: vancomycin 20 mg/Kg QD × 5 days, ileal canula, n = 6
Mycobacterium phlei [1] = experiment: microbe, parasite or virus in culture; settings: Mycolicibacterium phlei
Pseudomonas aeruginosa = experiment: MIC broth dilution, P. aeruginosa; format: cell-based
Mycobacterium phlei [2] = system: Mycobacterium phlei
[3] = system: HepG2 human hepatocellular carcinoma cells
Nav Channel [4] = experiment: Safety Screen 44: Nav Channel; format: binding, human
[5] = system: NMDA ion channel receptor; experiment: Safety Screen 44: NMDA; format: binding, human
Ca2+ Channel [6] = experiment: Safety Screen 44: Ca2+ Channel; format: binding, human
Kv Channel [7] = experiment: Safety Screen 44: Kv Channel; format: binding, human
BZD (central) [8] = experiment: Safety Screen 44: BZD (central); format: binding, human
Ca2+ Channel [9] = experiment: Safety Screen 44: Ca2+ Channel; format: binding, human; remark: listed apart in the source
BZD (central) [10] = experiment: Safety Screen 44: BZD (central); format: binding, human; remark: listed apart in the source
Kv Channel [11] = experiment: Safety Screen 44: Kv Channel; format: binding, human; remark: listed apart in the source
Nav Channel [12] = experiment: Safety Screen 44: Nav Channel; format: binding, human; remark: listed apart in the source
C. difficile = system: C. difficile; set-up: method as in McBride and Sonenshein, 2011; settings: ref McBride and Sonenshein, 2011, cited from earlier work
Streptococcus pneumonia = experiment: microbe, parasite or virus in culture; settings: Streptococcus pneumoniae, read-out: MIC to S. pneumoniae

Compound: CN[C@H](CC(C)C)C(=O)N[C@H]1C(=O)N[C@@H](CC(N)=O)C(=O)N[C@H]2C(=O)N[C@H]3C(=O)N[C@H](C(=O)N[C@H](C(=O)O)c4cc(O)cc(O)c4-c4cc3ccc4O)[C@H](O)c3ccc(c(Cl)c3)Oc3cc2cc(c3O[C@@H]2O[C@H](CO)[C@@H](O)[C@H](O)[C@H]2O[C@H]2C[C@](C)(N)[C@H](O)[C@H](C)O2)Oc2ccc(cc2Cl)[C@H]1O [vancomycin]
MIC against C. difficile (range) (Clostridium difficile): 0.5 to 4 µg/mL
MIC against S. aureus (range) (Staphylococcus aureus): 0.125 to 2 µg/mL
survival at day 21 (C. difficile UNT103-1): 33%
MIC (Mycobacterium phlei [1]; read-out: MIC, M. phlei): 0.25 µg/mL (≈ 0.173 µM)
MIC (Mycobacterium phlei [1]; read-out: Minimum Inhibitory Concentration Mycobacterium phlei): 250 µg/mL (≈ 173 µM)

MIC (Pseudomonas aeruginosa): 1000 µg/mL (≈ 2770 µM)
Compound: CC1COc2c(N3CCN(C)CC3)c(F)cc3c(=O)c(C(=O)O)cn1c23 (stereo not drawn) [Ofloxacin]

Compound: C=C1NC(=O)[C@H](Cc2c[nH]c3ccccc23)NC(=O)[C@H](NC(=O)[C@H](CCCCN)NC(=O)[C@@H](N)Cc2ccccc2)CSC[C@@H](C(=O)N[C@H]2C(=O)N3CCC[C@H]3C(=O)NCC(=O)N[C@H](C(=O)N[C@@H](C)C(=O)N[C@@H](C)C(=O)N/C(=C\C)C(=O)NCC(=O)N[C@@H]3CSC[C@@H]4NC(=O)[C@H](Cc5ccc(O)cc5)NC(=O)[C@@H](CS/C=C\NC4=O)NC(=O)[C@H](CC(N)=O)NC(=O)[C@H](Cc4ccccc4)NC3=O)CS[C@H]2C)NC(=O)[C@H](CC(C)C)NC1=O [R13A]
Minimum Inhibitory Concentration Mycobacterium phlei (Mycobacterium phlei [2]): 8 µg/mL

HepG2 EC50 ([3]; 24 h): > 1001
Compound: C=C1NC(=O)[C@H](C)NC(=O)[C@H](NC(=O)[C@H](CCCCN)NC(=O)[C@@H](N)Cc2ccccc2)CSC[C@@H](C(=O)N[C@H]2C(=O)N3CCC[C@H]3C(=O)NCC(=O)N[C@H](C(=O)N[C@@H](C)C(=O)N[C@@H](CCCNC(=N)N)C(=O)N/C(=C\C)C(=O)NCC(=O)N[C@@H]3CSC[C@@H]4NC(=O)[C@H](Cc5ccc(O)cc5)NC(=O)[C@@H](CS/C=C\NC4=O)NC(=O)[C@H](CC(N)=O)NC(=O)[C@H](Cc4ccccc4)NC3=O)CS[C@H]2C)NC(=O)[C@H](CC(C)C)NC1=O [W4A]
Minimum Inhibitory Concentration Mycobacterium phlei (Mycobacterium phlei [2]): 2 µg/mL

Compound: C=C1NC(=O)[C@H](Cc2c[nH]c3ccccc23)NC(=O)[C@H](NC(=O)[C@H](CCCCN)NC(=O)[C@@H](N)Cc2ccccc2)CSC[C@@H](C(=O)N[C@H]2C(=O)N3CCC[C@H]3C(=O)NCC(=O)N[C@H](C(=O)N[C@@H](C)C(=O)N[C@@H](CCCNC(=N)N)C(=O)N/C(=C\C)C(=O)NCC(=O)N[C@@H]3CSC[C@@H]4NC(=O)[C@H](Cc5ccc(O)cc5)NC(=O)[C@@H](CS/C=C\NC4=O)NC(=O)[C@H](CC(N)=O)NC(=O)[C@H](Cc4ccccc4)NC3=O)CS[C@H]2C)NC(=O)[C@H](C)NC1=O [L6A]
Cerep SafetyScreen 44 % Inhibition Nav Channel (Nav Channel [4]): 8%
Minimum Inhibitory Concentration Mycobacterium phlei (Mycobacterium phlei [2]): 4 µg/mL
Cerep SafetyScreen 44 % Inhibition NMDA [5]: 15%
HepG2 EC50 ([3]; HepG2 cytotoxicity): 466 µg/mL
Cerep SafetyScreen 44 % Inhibition Ca2+ Channel (Ca2+ Channel [6]): 3%
Cerep SafetyScreen 44 % Inhibition Kv Channel (Kv Channel [7]): 8%
Cerep SafetyScreen 44 % Inhibition BZD (central) (BZD (central) [8]): -6%

HepG2 EC50 ([3]; 24 h): > 1002
Compound: C=C1NC(=O)[C@H](C(C)C)NC(=O)[C@H](NC(=O)[C@H](CCCCN)NC(=O)[C@@H](N)Cc2ccccc2)CSC[C@@H](C(=O)N[C@H]2C(=O)N3CCC[C@H]3C(=O)NCC(=O)N[C@H](C(=O)N[C@@H](C)C(=O)N[C@@H](CCCNC(=N)N)C(=O)N/C(=C\C)C(=O)NCC(=O)N[C@@H]3CSC[C@@H]4NC(=O)[C@H](Cc5ccc(O)cc5)NC(=O)[C@@H](CS/C=C\NC4=O)NC(=O)[C@H](CC(N)=O)NC(=O)[C@H](Cc4ccccc4)NC3=O)CS[C@H]2C)NC(=O)[C@H](CC(C)C)NC1=O [W4V]
Minimum Inhibitory Concentration Mycobacterium phlei (Mycobacterium phlei [2]): 4 µg/mL

HepG2 EC50 ([3]; 24 h): 541 µg/mL
Compound: C=C1NC(=O)[C@H](Cc2c[nH]c3ccccc23)NC(=O)[C@H](NC(=O)[C@H](CCCCN)NC(=O)[C@@H](N)Cc2ccccc2)CSC[C@@H](C(=O)N[C@H]2C(=O)N3CCC[C@H]3C(=O)NCC(=O)N[C@H](C(=O)N[C@@H](C)C(=O)N[C@@H](CCCNC(=N)N)C(=O)N/C(=C\C)C(=O)NCC(=O)N[C@@H]3CSC[C@@H]4NC(=O)[C@H](Cc5ccc(O)cc5)NC(=O)[C@@H](CS/C=C\NC4=O)NC(=O)[C@H](CC(N)=O)NC(=O)[C@H](Cc4ccccc4)NC3=O)CS[C@H]2C)NC(=O)[C@H]([C@@H](C)O)NC1=O [L6T]
Minimum Inhibitory Concentration Mycobacterium phlei (Mycobacterium phlei [2]): 4 µg/mL

Compound: C=C1NC(=O)[C@H](Cc2c[nH]c3ccccc23)NC(=O)[C@H](NC(=O)[C@H](CCCCN)NC(=O)[C@@H](N)Cc2ccccc2)CSC[C@@H](C(=O)N[C@H]2C(=O)N3CCC[C@H]3C(=O)NCC(=O)N[C@H](C(=O)N[C@@H](C)C(=O)N[C@@H](CCCNC(=N)N)C(=O)N/C(=C\C)C(=O)NCC(=O)N[C@@H]3CSC[C@@H]4NC(=O)[C@H](Cc5ccc(O)cc5)NC(=O)[C@@H](CS/C=C\NC4=O)NC(=O)[C@H](CC(N)=O)NC(=O)[C@H](Cc4ccc(O)cc4)NC3=O)CS[C@H]2C)NC(=O)[C@H](CC(C)C)NC1=O [F17Y]
Minimum Inhibitory Concentration Mycobacterium phlei (Mycobacterium phlei [2]): 2 µg/mL
Cerep SafetyScreen 44 % Inhibition NMDA ([5]; […]): 12%
HepG2 EC50 ([3]; HepG2 cytotoxicity): 514 µg/mL
Cerep SafetyScreen 44 % Inhibition Ca2+ Channel (Ca2+ Channel [9]): -7%
Cerep SafetyScreen 44 % Inhibition BZD (central) (BZD (central) [10]): -10%
Cerep SafetyScreen 44 % Inhibition Kv Channel (Kv Channel [11]): 2%
Cerep SafetyScreen 44 % Inhibition Nav Channel (Nav Channel [12]): 2%

Compound: gallidermin (IASKFLCTPGCAKTGSFNSYCC; thioether (positions not given here); also: lanthionine/methyllanthionine bridges, places not given here; UniProt P21838 31-52, looked up) [lantibiotic cited from literature]
MIC increase of C. difficile (C. difficile; cpr resistance): 2–4 fold
MIC of C. difficile (C. difficile; level after MIC increase (cpr)): ~1 µg/mL

MIC (Streptococcus pneumonia): 1 µg/mL (≈ 2.86 µM)
Compound: CC1(C)S[C@@H]2[C@H](NC(=O)[C@H](N)c3ccccc3)C(=O)N2[C@H]1C(=O)O [ampicillin]

Compound: C=C1NC(=O)[C@H](Cc2c[nH]c3ccccc23)NC(=O)[C@H](NC(=O)[C@H](CCCCN)NC(=O)[C@@H](N)Cc2ccccc2)CSC[C@@H](C(=O)N[C@H]2C(=O)N3CCC[C@H]3C(=O)NCC(=O)N[C@H](C(=O)N[C@@H](C)C(=O)N[C@@H](CC(C)C)C(=O)N/C(=C\C)C(=O)NCC(=O)N[C@@H]3CSC[C@@H]4NC(=O)[C@H](Cc5ccc(O)cc5)NC(=O)[C@@H](CS/C=C\NC4=O)NC(=O)[C@H](CC(N)=O)NC(=O)[C@H](Cc4ccccc4)NC3=O)CS[C@H]2C)NC(=O)[C@H](CC(C)C)NC1=O [R13L]
Minimum Inhibitory Concentration Mycobacterium phlei (Mycobacterium phlei [2]): 8 µg/mL

HepG2 EC50 ([3]; 24 h): 218 µg/mL
Compound: C=C1NC(=O)[C@H](Cc2c[nH]c3ccccc23)NC(=O)[C@H](NC(=O)[C@H](CCCCN)NC(=O)[C@@H](N)Cc2ccccc2)CSC[C@@H](C(=O)N[C@H]2C(=O)N[C@@H](Cc3c[nH]cn3)C(=O)NCC(=O)N[C@H](C(=O)N[C@@H](C)C(=O)N[C@@H](CCCNC(=N)N)C(=O)N/C(=C\C)C(=O)NCC(=O)N[C@@H]3CSC[C@@H]4NC(=O)[C@H](Cc5ccc(O)cc5)NC(=O)[C@@H](CS/C=C\NC4=O)NC(=O)[C@H](CC(N)=O)NC(=O)[C@H](Cc4ccccc4)NC3=O)CS[C@H]2C)NC(=O)[C@H](CC(C)C)NC1=O [P9H]
Minimum Inhibitory Concentration Mycobacterium phlei (Mycobacterium phlei [2]): 4 µg/mL
